US9132198B2, “Mitochondrial penetrating peptides as carriers for anticancer compounds” (priority 2011, dated 2015)
“Also recorded” adds a separate entry of the source. Non-standard residues stand in square brackets, D forms with d. Residues, ends and D or L forms follow the SMILES beside them. *: point of attachment. Chlorambucil = O=C(CCCc1ccc(N(CCCl)CCCl)cc1)*; Cha = N[C@@H](CC1CCCCC1)C(=O)O

Key:
[1] = immunogold TEM, mouse liver mitochondria
Procedure: Mitochondria were isolated from fresh mouse liver as previously described^1. Functionality was confirmed using respirometry. The isolated organelles were used only when the levels of oxygen consumption in state III respiration (presence of ADP) were >4 fold greater than in state II respiration, indicating well-coupled mitochondria. Mitochondrial protein concentration was determined by BCA assay (Sigma). […] Cold PBS was added and mitochondria were pelleted by centrifugation. The pellet was fixed in 1% glutaraldehyde in PBS for 90 min at room temperature, washed with PBS, then fixed with 1% osmium tetroxide for 2 hr at 4° C. The pellets were dehydrated using graded ethanol, followed by stepwise infiltration with propylene oxide and Epon-Araldite resin. The pellets were cured in resin for 48 hr at 60° C. The blocks were sectioned to 60 nm and the sections adhered to nickel grids for 30 min at 60° C. The grids were floated on saturated aqueous sodium metaperiodate for an hour at room temperature, washed, then blocked with 1% BSA, and labeled with Anti-biotin (Jackson Immunolabs) followed by Protein A-gold (Aurion, 10 nm). The grids were rinsed with water and stained with 2% uranyl acetate for 5 minutes. To quantitate gold labeling, 200 gold particles (for more densely labeled samples) or 400 mitochondria (for less densely labeled samples) were counted for each counting event. […]

CLL patient cells [2] = assay: Annexin V/Sytox Red viability of CLL patient cells versus healthy donor cells; format: cell-based, human; conditions: LC25 and LC50; PBSCs and mononuclear cells of healthy donors as comparison
[3] = system: A2780 Cbl-resistant cells; assay: Annexin V apoptosis assay, A2780 Cbl-resistant; format: cell-based; conditions: A2780 Cbl-resistant line
HeLa cells [4] = assay: Analysis of mitochondrial superoxide levels (MitoSOX, flow cytometry); format: cell-based; conditions: 1 hour treatment
Procedure: HeLa cells were plated at 100,000 per well of a 24-well plate 24 hours prior to experiment and treated with Cbl or MPP-Cbl in OPTI-MEM (Invitrogen, Carlsbad) for 1 hour. Media was removed and cells were incubated with MitoSox (Invitrogen, Carlsbad) according to manufacturer's instructions. Cells were washed with PBS, trypsinized and analyzed via flow cytometry with FACSCanto (BD, Franklin Lakes).

[5] = system: red blood cells (healthy donors); assay: Hemolysis assay; format: cell-based, human; conditions: RBCs of healthy donors, at concentrations used (LC25, LC50)
Procedure: Red blood cells obtained during Ficoll separation of healthy donor peripheral blood was used for this assay. Cells were washed with PBS until the supernatant was clear. Peptide solutions were made in Iscove's media and a 1:2 dilution was made across a 96-well plate. To each well, 2 μl, of red blood cells were added, mixed and then incubated for 1 hour at 37° C. with 5% CO2. For 100% lysis, 0.1% Triton X-100 was added to three wells and for 0% lysis, cells from three wells without peptide were used. Plates were spun at 1000×g for 10 min and 50 μL of supernatant was then transferred to a new plate, mixed with 50 μL of PBS and read at 415 nm.

HL60 cells [6] = assay: Quantitative real-time PCR array of DNA damage signaling genes; format: cell-based, human; conditions: for DDIT3/GADD153 change in expression: vs untreated cells
pBR322DNA = assay: Crosslinking of isolated DNA; format: biochemical; conditions: 2-200 μM
Procedure: Crosslinking of isolated pBR322DNA was determined from a modification of a published method.^30 Briefly, pBR322DNA was incubated with compounds at concentrations and times indicated in 25 mM triethanolamine (pH 7.2) and 1 mM EDTA. Reactions were terminated by the addition of 50 mM EDTA and 150 μg/ml excess short oligonucleotide DNA. Samples were denatured at 95° C. in denaturation buffer (30% DMSO, 1 mM EDTA, bromophenol blue, xylene cyanol, and 0.4% SDS) for 3 min and flash frozen in a dry ice/ethanol bath. Electrophoresis was carried out in 0.8% agarose in TAE buffer and stained post-run with ethidium bromide.

HL60 cells [7] = assay: Analysis of toxicity, CCK-8 viability, leukemia panel: HL60; conditions: for LC25 dose: HL60 cells
[8] = Colorimetric alkylation assay; format: biochemical; conditions: absorbance of 4-NBP upon alkylation
Procedure: Alkylation was tested using 4-(4-Nitrobenzyl)pyridine (4-NBP) (Thomas, et al., 1992). Briefly, compound (200-450 μM) was incubated with 4-NBP (0.7% w/vol) in a buffer containing 85 mM triethanolamine (pH 7.2) and 43% acetone. Reactions were incubated at 37° C. for 30-120 min. Reactions were terminated by freezing in a dry ice/ethanol bath. To develop samples, […] ethyl acetate and 25 μl 5N NaOH were added followed by vortexing. Absorbance of organic ethyl acetate was read at 540 nm.

HeLa cells [9] = assay: Analysis of toxicity, CCK-8 viability, HeLa; format: cell-based
A2780 wildtype cells = assay: Annexin V apoptosis assay, A2780 wild-type; format: cell-based; conditions: A2780 wild-type line
HL60 cells [10] = assay: Western blots of GADD45G pathway effector proteins (p38, JNK); format: cell-based; conditions: HL60, immunoblotting
Procedure: Leukemia cells were cultured as above and were washed twice with PBS prior to lysis (10 mM Tris, 200 mM NaCl, 1 mM EDTA (pH 7.4), 1 mM PMSF, 0.5% NP-40, 1% Triton X-100, 1× Protease Inhibitor Cocktail (Bioshop, Burlington, ON)) at 4° C., 30 min. Cells were then centrifuged at 1,200 rcf, 4° C., 5 min and protein levels were quantified using bicinchoninic acid (BCA) assay (Pierce, Rockford). 15 μg of total protein was diluted in 8× sample buffer and heated to 42° C. for 5 min prior to loading on 15% gel. Gels were run at 100 V for 1 h, and then proteins were transferred onto nitrocellulose membrane at 100 V for 40 min. Membranes were blocked with 5% skim milk for 1 hour and then probed with primary antibody according to manufacturer's instructions (1:500 BclXL antibody [Abcam, Cambridge, Mass.], 1:2000 β-actin antibody [Abcam], 1:1000 phospho INK [Abcam], 1:1000 phospho p38 [Abcam], 1:1000 GADD45G [Santa Cruz Biotechnology, Santa Cruz, Calif.], 1:1000 PPP1R15A [Santa Cruz Biotechnology], 1:1000 DNA Ligase III [Santa Cruz Biotechnology], 1:1000 p21 [Santa Cruz Biotechnology], and 1:1000 DDIT3 [Cell Signaling Technology, Beverly, Mass.]). Membranes were then washed and incubated with 1:5000 donkey anti-mouse or goat anti-rabbit IgG-HRP secondary antibody for 1 hr prior to ECL chemiluminescence detection (GE Amersham).

[11] = system: 17.7 kb nuclear DNA segment (β-globin gene) in HL60 cells; assay: DNA lesion frequency by quantitative PCR, nuclear DNA; format: cell-based; conditions: HL60, Cbl 150 μM or mt-Cbl 3 μM, 2 hr
Procedure: (§1) A total of 5×10^6 HL60 cells were treated with Cbl (150 μM) or mt-Cbl (3 μM) for 2 hr. DNA was isolated from frozen cell pellets with the QIAGEN Genomic Tip and Genomic DNA Buffer Set Kit (QIAGEN) and quantified using the PicoGreen dye (Invitrogen). Quantitative amplification of the 8.9 kb mitochondrial segment and the 17.7 kb β-globin target sequence was performed using the GeneAmp XL PCR kit (Perkin-Elmer) as described previously^31. Lesion frequency at a given dose, D, was calculated as D=−In AD/AC, where AD is the amplification at the dose, and AC is the level of amplification in nondamaged controls.

HeLa cells [12] = assay: Mitochondrial membrane potential (JC-1, flow cytometry); format: cell-based; conditions: 1 hour treatment
Procedure: HeLa cells were seeded at 50,000 cells per well 24 hours prior to experiment. CLL patient samples, PBSCs and healthy donor B cells were seeded at 200,000 cells per well in triplicate in a 24-well plate in Iscove's media. Cells were then incubated with 2 μM of 5,5′,6,6′-tetrachloro-1,1′,3,3′-tetraethylbenzimidazolylcarbocyanine iodide (JC-1, Invitrogen, Carlsbad) for 20 minutes at 37° C. Each sample was then washed twice with 1 mL PBS and resuspended in 300 μL PBS prior to being read on a BD FACS Canto. Samples were excited at 488 nm and emission was collected at 526 nm (green) and 595 nm (red). To obtain the mitochondrial membrane potential (red/green), emission from the red channel was divided by emission from the green channel. For membrane depolarization studies, HeLa cells were treated with Cbl or MPP-Cbl for 1 hour in OPTI-MEM (Invitrogen, Carlsbad) prior to incubation with JC-1. Cells were washed with PBS, trypsinized and analyzed as above.

[13] = system: 8.9 kb mitochondrial DNA segment in HL60 cells; assay: DNA lesion frequency by quantitative PCR, mitochondrial DNA; format: cell-based; conditions: HL60, Cbl 150 μM or mt-Cbl 3 μM, 2 hr
Procedure: as §1

K562 cells = assay: Analysis of toxicity, CCK-8 viability, leukemia panel: K562
DAUDI cells = assay: Analysis of toxicity, CCK-8 viability, leukemia panel: DAUDI; conditions: Homo sapiens, read-out: LC50
AML2 (OCI-AML2) cells = assay: Analysis of toxicity, CCK-8 viability, leukemia panel: AML2; conditions: Homo sapiens, OCI-AML2, read-out: LC50
LY17 cells = assay: Analysis of toxicity, CCK-8 viability, leukemia panel: LY17; conditions: read-out: LC50
M2 (OCI-M2) cells = assay: Analysis of toxicity, CCK-8 viability, leukemia panel: M2
U937 cells = assay: Analysis of toxicity, CCK-8 viability, leukemia panel: U937; conditions: Homo sapiens, U-937, read-out: LC50
CLL patient cells [14] = assay: Peptide uptake (flow cytometry); format: cell-based, human; conditions: 5 μM thiazole orange-labeled peptide, 15 min; CLL cells vs PBSCs and mononuclear cells
Procedure: CLL patient samples, PBSCs and healthy donor B cells were seeded at 200,000 cells per well in triplicate in a 24-well plate in Iscove's media. Cells were then incubated with 5 μM thiazole orange-labeled peptide for 15 min, washed with PBS and analyzed on FACSCanto (BD, Franklin Lakes) to determine relative intracellular peptide concentrations.

[15] = HL60, LC25 dose, greater with mt-Cbl relative to Cbl alone

Compound: Biotin-FxrFxrFxr [Biotin-MPP]
- localization within isolated mitochondria [1]: predominantly matrix localization

Compound: CC(=O)N[C@@H](CC1CCCCC1)C(=O)N[C@H](CCCNC(=N)N)C(=O)N[C@@H](CC1CCCCC1)C(=O)N[C@H](CCCNC(=N)N)C(=O)N[C@@H](CC1CCCCC1)C(=O)N[C@H](CCCNC(=N)N)C(=O)N[C@H](CCCCNC(=O)CCCc1ccc(N(CCCl)CCCl)cc1)C(N)=O [MPP-Cbl, Ac-FxrFxrFxrk-Cbl] (Ac-[Cha][dR][Cha][dR][Cha][dR][dK](Chlorambucil)-NH2)
- selective toxicity to CLL patient cells versus healthy donor cells (CLL patient cells [2]): more selectively toxic to CLL patient samples cells
- concentration inducing cell death ([3]; value comparable to wild-type): 9 µM
- increase of mitochondrial superoxide levels (HeLa cells [4]): noted upon MPP-Cbl treatment
- hemolysis [5]: nominal hemolysis levels; also recorded: minimal
- p21 expression (HL60 cells [6]; HL60, LC25 dose): overexpressed
- DDIT3/GADD153 change in expression (HL60 cells [6]; HL60, LC25 dose): no change
- GADD45G upregulation (HL60 cells [6]; [15]): 15 fold
- PPP1R15A/GADD34 upregulation (HL60 cells [6]; [15]): 4 fold
- Ligase III increase in expression (HL60 cells [6]; HL60, LC50 dose, 1 hr): this was detected
- DNA crosslink formation (pBR322DNA): concentration-dependent crosslink formation
- LC25 dose (HL60 cells [7]): 3 µM
- reduction of alkylating ability compared to Cbl alone [8]: approximately two fold
- increase in potency compared to Cbl (HeLa cells [9]; cell viability assay, 24 hours): 100 fold
- concentration inducing cell death (A2780 wildtype cells): 9 µM
- activation of p38 or JNK pathways (HL60 cells [10]): activating JNK
- damage of nuclear DNA [11]: minimal effect on the nuclear genome
- depolarization of mitochondrial membrane (HeLa cells [12]): noted upon MPP-Cbl treatment
- damage of mitochondrial DNA [13]: significant reduction of mitochondrial DNA amplification

Compound: Ac-FxrFxrFxr [MPP]
- toxicity (HeLa cells [9]; concentration range tested): did not show appreciable toxicity

Compound: O=C(O)CCCc1ccc(N(CCCl)CCCl)cc1 [Cbl, chlorambucil]
- selective toxicity to CLL patient cells versus healthy donor cells (CLL patient cells [2]): more selectively toxic to CLL patient samples cells
- toxicity ([3]; even at 100 μM): insignificant
- hemolysis [5]: minimal
- p21 expression (HL60 cells [6]; HL60, LC25 dose): overexpressed
- DDIT3/GADD153 change in expression (HL60 cells [6]; HL60, LC25 dose): 5 fold
- CC50 (K562 cells; Homo sapiens, K562, read-out: LC50): 306 ± 26 µM
- resistance to Cbl relative to rest of the cohort (K562 cells; K562 cells): approximately 10 fold
- DNA crosslink formation (pBR322DNA): concentration-dependent crosslink formation
- CC50 (DAUDI cells): 27 ± 7 µM
- LC25 dose (HL60 cells [7]): 17 µM
- EC50 (HL60 cells [7]; Homo sapiens, HL-60): 34 µM
- CC50 (HL60 cells [7]; Homo sapiens, HL-60, read-out: LC50): 34 ± 6 µM
- CC50 (AML2 (OCI-AML2) cells): 28 ± 3 µM
- induction of cell death (A2780 wildtype cells): able to induce cell death
- activation of p38 or JNK pathways (HL60 cells [10]): activating p38
- CC50 (LY17 cells): 55 ± 7 µM
- damage of nuclear DNA [11]: primarily damaged nuclear DNA
- depolarization of mitochondrial membrane (HeLa cells [12]): not with Cbl
- CC50 (M2 (OCI-M2) cells; OCI-M2, read-out: LC50): 311 ± 24 µM
- resistance to Cbl relative to rest of the cohort (M2 (OCI-M2) cells; OCI-M2 cells): approximately 10 fold
- damage of mitochondrial DNA [13]: very few mitochondrial lesions
- CC50 (U937 cells): 34 ± 5 µM

Compound: TO-FxrFxrFxr [to-MPP]
- peptide uptake (CLL patient cells [14]): higher levels of peptide uptake in CLL cells
